Here are results for six molecules from patent US20260042764A1, “COMPOSITIONS AND METHODS FOR INHIBITION OF KRAS” (TheRas, Inc., priority 2022, published 2026).

In general, pIC50 refers to the IC50 on a negative log10 scale, so that one unit is a factor of ten. Read a low pIC50 as a large IC50.

pIC50: −log10 of the molar value. Where only a bound is given, the exact number is not on record here.

Assay [1] addresses T1, Avi-KRAS G12V (2-169) GTP/RAF1 RBD-3xFLAG (51-131) (Homo sapiens, UniProt P01116, G12V).
T1 construct: Avi-KRAS G12V (2-169)
Description: Raf1-KRAS G12V-GTP disruption HTRF assay (Biological Example 3). In kind it is binding. As to conditions: KRAS G12V, GTP-loaded. Summed up:
(§1)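 50 nM Avi-KRAS (2-169) GTP/RAF1 RBD complex; 75 nM RBD-Avi; pH 7.5 Tris buffer, 10% DMSO; cpd 30 μM top, 3x, 10 pts; 1 h RT, 700 rpm; HTRF, % of DMSO.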
Background: In TR-FRET formats the signal depends on donor and acceptor labels being close together.

Assay [2] addresses T2, Avi-KRAS G12D (1-169) GppNHp/RAF1 RBD-3xFLAG (52-151) (Homo sapiens, UniProt P01116, G12D).
T2 construct: Avi-KRAS G12D (1-169)
Description: Raf1-KRAS G12D-GppNHP disruption HTRF assay (Biological Example 1). The class given is binding. A digest of the protocol:
(§2)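 Read-out is HTRF signal of the KRAS–RAF1 RBD complex, reported as percentage of activity relative to DMSO (100%). Protein mix and detection reagents each incubated 1 h at room temperature with 700 rpm shaking. Buffer: 50 mM Tris pH 7.5, 100 mM NaCl, 5 mM MgCl2, 0.1% BSA, 0.01% Tween, 10% DMSO.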

For assay [3], the target named is T3, Avi-KRAS G12R (1-169) GppNHp/RAF1 RBD-3xFLAG (52-151) (Homo sapiens, UniProt P01116, G12R).
T3 construct: Avi-KRAS G12R (1-169)
T3 sequence (P01116 1-169 isoform P01116-2 G12R): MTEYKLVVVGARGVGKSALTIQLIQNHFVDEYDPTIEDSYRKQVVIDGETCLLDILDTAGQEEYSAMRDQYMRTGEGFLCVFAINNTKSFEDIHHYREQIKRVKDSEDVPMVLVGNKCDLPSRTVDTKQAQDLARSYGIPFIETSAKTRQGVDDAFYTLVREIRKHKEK
Description: Raf1-KRAS G12R-GppNHP disruption HTRF assay (Biological Example 1). In kind it is binding. Summed up:
as §2

Assay [4] concerns the target T4, Avi-KRAS G12V (1-169) GppNHp/RAF1 RBD-3xFLAG (52-151) (Homo sapiens, UniProt P01116, G12V).
T4 construct: Avi-KRAS G12V (1-169)
Description: Raf1-KRAS G12V-GppNHP disruption HTRF assay (Biological Example 1). The class given is binding. Summed up: as §2

The target in assay [5] is T5, Avi-KRAS WT (2-169) GTP/RAF1 RBD-3xFLAG (51-131) (Homo sapiens, UniProt P01116).
T5 construct: Avi-KRAS WT (2-169)
T5 sequence (P01116 2-169 isoform P01116-2): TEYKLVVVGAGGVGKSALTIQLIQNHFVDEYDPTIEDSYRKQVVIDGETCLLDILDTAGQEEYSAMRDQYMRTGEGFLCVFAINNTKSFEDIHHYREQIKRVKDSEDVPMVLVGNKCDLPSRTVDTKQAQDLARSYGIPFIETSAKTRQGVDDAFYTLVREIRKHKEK
Description: Raf1-KRAS WT-GTP disruption HTRF assay (Biological Example 3). In kind it is binding. As to conditions: KRAS WT, GTP-loaded. A digest of the protocol:
as §1

In assay [6] the test system is SW620 cells (KRAS G12V). Description: Cell-based pERK HTRF assay in SW620 cell (Biological Example 4). A digest of the protocol:
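SW620 (KRAS G12V) cells seeded at 3×10^4/well in RPMI, 10% FBS, then treated next day for 4 h with a 9-point half-log series from 1 μM top (0.25% DMSO). Lysates analyzed for pERK by HTRF (Eu cryptate/d2 antibodies, 4–24 h at room temperature), excitation 320 nm, emission 615 nm.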

Assay [7] has as its target T6, Avi-KRAS WT (1-169) GppNHp/RAF1 RBD-3xFLAG (52-151) (Homo sapiens, UniProt P01116).
T6 construct: Avi-KRAS WT (1-169)
The assay can be described thus: Raf1-KRAS WT-GppNHP disruption HTRF assay (Biological Example 1). In kind it is binding. A digest of the protocol:
as §2

The mark [8] stands for this setting: Homo sapiens, SW-620, SW620 (KRAS G12V) cells.
Setting [9] is: KRAS G12D, GppNHp-loaded, class symbols.
[10] abbreviates: KRAS G12R, GppNHp-loaded, class symbols.
The mark [11] stands for this setting: KRAS G12V, GppNHp-loaded, class symbols.
Setting [12] is: Homo sapiens, SW-620, SW620 (KRAS G12V) cells, pERK HTRF, class symbols.
[13] abbreviates: KRAS WT, GppNHp-loaded, class symbols.

T2 sequence (P01116 1-169 isoform P01116-2 G12D): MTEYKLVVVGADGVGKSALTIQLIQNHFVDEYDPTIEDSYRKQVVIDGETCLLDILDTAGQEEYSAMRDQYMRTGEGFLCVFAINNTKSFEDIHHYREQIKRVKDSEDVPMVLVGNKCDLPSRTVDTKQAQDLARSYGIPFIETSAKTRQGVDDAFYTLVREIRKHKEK
T1 sequence (P01116 2-169 isoform P01116-2 G12V): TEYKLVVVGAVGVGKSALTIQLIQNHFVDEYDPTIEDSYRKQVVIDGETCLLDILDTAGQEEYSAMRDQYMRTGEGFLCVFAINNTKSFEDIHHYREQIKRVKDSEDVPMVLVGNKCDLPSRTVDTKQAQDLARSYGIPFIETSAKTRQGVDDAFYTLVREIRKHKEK
T6 sequence (P01116 1-169 isoform P01116-2): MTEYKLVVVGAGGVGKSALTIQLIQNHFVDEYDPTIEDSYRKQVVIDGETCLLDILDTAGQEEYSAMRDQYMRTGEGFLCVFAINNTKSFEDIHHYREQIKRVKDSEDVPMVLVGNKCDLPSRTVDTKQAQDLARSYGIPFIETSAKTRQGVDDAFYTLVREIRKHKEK
T4 sequence (P01116 1-169 isoform P01116-2 G12V): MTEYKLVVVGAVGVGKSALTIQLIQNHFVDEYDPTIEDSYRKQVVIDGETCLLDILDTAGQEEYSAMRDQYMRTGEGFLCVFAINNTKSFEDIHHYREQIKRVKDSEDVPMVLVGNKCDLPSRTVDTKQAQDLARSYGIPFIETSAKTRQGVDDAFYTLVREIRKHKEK

With `N#Cc1c(N)sc2c(F)ccc(-c3c(C(F)(F)F)cc4c(N5C[C@H]6C[C@@H]5CO6)nc(OC[C@@]56CCCN5C[C@H](F)C6)nc4c3F)c12` [Compound 253, 2-amino-7-fluoro-4-[8-fluoro-2-[[(2R,8S)-2-fluoro-1,2,3,5,6,7-hexahydropyrrolizin-8-yl]methoxy]-4-[(1R,4R)-2-oxa-5-azabicyclo[2.2.1]heptan-5-yl]-6-(trifluoromethyl)quinazolin-7-yl]benzothiophene-3-carbonitrile], the pIC50 was 5.00 to 6.00 in assay [1]; 6.00 to 7.00 in assay [2] (KRAS G12D, GppNHp-loaded, Table 11); 6.00 to 7.00 in assay [3] (KRAS G12R, GppNHp-loaded, Table 11); 6.00 to 7.00 in assay [4] (KRAS G12V, GppNHp-loaded, Table 11); 6.00 to 7.00 in assay [5]; > 7.00 in assay [6] (setting [8]). Further, the pIC50 in assay [6] (Homo sapiens, SW-620, SW620 (KRAS G12V) cells, pERK HTRF) was 6.00 to 7.00; in assay [7] (KRAS WT, GppNHp-loaded, Table 11), 6.00 to 7.00.
`CCN(c1nc(OC[C@@]23CCCN2C[C@H](F)C3)nc2c(F)c(-c3ccc(F)c4sc(N)c(C#N)c34)c(C(F)(F)F)cc12)[C@H]1CCN(C(=O)c2ccns2)C1` (atropisomer, axis not shown) [Compound 726]: the pIC50 is 6.00 to 7.00 in assay [1]; > 7.00 in assay [2] (setting [9]); > 7.00 in assay [3] (setting [10]); > 7.00 in assay [4] (setting [11]); 6.00 to 7.00 in assay [5]; > 7.00 in assay [6] (setting [8]). Also, the pIC50 in assay [6] (setting [12]) and in assay [7] (setting [13]) was > 7.00 throughout.
Consider `CCN(c1nc(OC[C@]23CCCN2C[C@H](F)C3)nc2c(F)c(-c3ccc(F)c4sc(N)c(C#N)c34)c(C(F)(F)F)cc12)[C@H]1CCN(C(=O)C(C)C)C1` [Compound 705], for which the pIC50 is 6.00 to 7.00 in assay [1]; > 7.00 in assay [2] (setting [9]); > 7.00 in assay [3] (setting [10]); 6.00 to 7.00 in assay [4] (setting [11]); 6.00 to 7.00 in assay [5]; > 7.00 in assay [6] (setting [8]). The pIC50 in assay [6] (setting [12]) and in assay [7] (setting [13]) was > 7.00 in each case.
As for `C/C=C/C(=O)N1CC[C@H](N(CC)c2nc(OC[C@@]34CCCN3C[C@H](F)C4)nc3c(F)c(-c4ccc(F)c5sc(N)c(C#N)c45)c(C(F)(F)F)cc23)C1` (atropisomer, axis not shown) [Compound 674], the pIC50 in assay [1] is ≥ 7.00; in assay [2] (setting [9]) it was > 7.00; in assay [3] (setting [10]) it was > 7.00; in assay [4] (setting [11]) it was > 7.00; in assay [5] it was ≥ 7.00; in assay [6] (setting [8]) it was 6.00 to 7.00. In addition, the pIC50 in assay [6] (setting [12]) and in assay [7] (setting [13]) was > 7.00 each time.
As for `CCN(c1nc(OC[C@@]23CCCN2C[C@H](F)C3)nc2c(F)c(-c3ccc(F)c4sc(N)c(C#N)c34)c(C(F)(F)F)cc12)[C@H]1C[C@H]2CCC(=O)N2C1` (atropisomer, axis not shown; (aR)) [Compound 573, 2-amino-4-((S)-4-(ethyl((2S,7aR)-5-oxohexahydro-1H-pyrrolizin-2-yl)amino)-8-fluoro-2-(((2R,7aS)-2-fluorotetrahydro-1H-pyrrolizin-7a(5H)-yl)methoxy)-6-(trifluoromethyl)quinazolin-7-yl)-7-fluorobenzo[b]thiophene-3-carbonitrile], the pIC50 in assay [1] is ≥ 7.00; in assay [2] (setting [9]), > 7.00; in assay [3] (setting [10]) it was > 7.00; in assay [4] (setting [11]) it was > 7.00; in assay [5], ≥ 7.00; in assay [6] (setting [8]), > 7.00. For the same molecule, the pIC50 in assay [6] (setting [12]) and in assay [7] (setting [13]) was > 7.00 each time.
Take `CC(=O)N1CC(N(C)c2nc(OCC34CCCN3CC(F)C4)nc3c(F)c(-c4ccc(F)c5sc(N)c(C#N)c45)c(C(F)(F)F)cc23)CC1C` (stereo not drawn) [Compound 291]: the negative-log IC50 (pIC50) in assay [1] was 6.00 to 7.00; in assay [2] (KRAS G12D-GppNHp/RAF1 RBD HTRF), 6.00 to 7.00; in assay [3] (KRAS G12R-GppNHp/RAF1 RBD HTRF) it was 6.00 to 7.00; in assay [4] (KRAS G12V-GppNHp/RAF1 RBD HTRF), 6.00 to 7.00; in assay [5], 6.00 to 7.00; in assay [6] (SW620 (KRAS G12V) cells), > 7.00. The pIC50 in assay [6] (SW620 (KRAS G12V) cells, pERK HTRF) was > 7.00; in assay [7] (KRAS WT-GppNHp/RAF1 RBD HTRF), 6.00 to 7.00.
